Data from the supplement of paper PMC10307832.

What was measured:
Assay in all cases: relative viability (nuclei count vs DMSO), 5 days (fraction); higher = more cells survive
[1] = compound: C1=CC2=C(C=CC(=C2)C=C3C(=O)NC(=NCC4=CC=CS4)S3)N=C1 [RO-3306] + C[C@]1(O)C[C@@H](c2nc(-c3ccc4ccc(-c5ccccc5)nc4c3)c3c(N)nccn32)C1 [Linsitinib] (partner 1 µM)
Outline: (§1)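 Relative viability was taken as the ratio of nuclei in treated wells to nuclei in vehicle wells. Lung cancer cell lines in 1536-well plates received compounds by pin tool one day after seeding, either one drug alone or a fixed anchor-drug dose plus five library-drug doses (not always all listed) in √10 steps. Nuclei were counted on 4× images after 5 days of treatment, and values are medians of duplicate plates.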

[2] = compound: O=S(=O)(c1ccccc1)N(CC(F)(F)F)c1ccc(C(O)(C(F)(F)F)C(F)(F)F)cc1 + Nc1ncn([C@H]2C[C@H](O)[C@@H](CO)O2)c(=O)n1 [Decitabine] (partner 2 µM)
Outline: as §1

[3] = compound: C1=CC2=C(C=CC(=C2)C=C3C(=O)NC(=NCC4=CC=CS4)S3)N=C1 [RO-3306] + Cc1cc(Nc2cc(N3CCN(C)CC3)nc(Sc3ccc(NC(=O)C4CC4)cc3)n2)n[nH]1 [Tozasertib] (partner 0.1 µM)
Outline: as §1

[4] = compound: C1=CC2=C(C=CC(=C2)C=C3C(=O)NC(=NCC4=CC=CS4)S3)N=C1 [RO-3306] + COc1cc2c(Oc3ccc(NC(=O)C4(C(=O)Nc5ccc(F)cc5)CC4)cc3F)ccnc2cc1OCCCN1CCOCC1 [Foretinib] (partner 0.25 µM)
Outline: as §1

Cell Line | relative viability ([1]; first compound 0.01 µM) | relative viability ([1]; first compound 0.03162 µM) | relative viability ([1]; first compound 0.1 µM) | relative viability ([1]; first compound 0.3162 µM) | relative viability ([1]; first compound 1 µM) | relative viability ([2]; first compound 0.8 µM) | relative viability ([2]; first compound 2.53 µM) | relative viability ([2]; first compound 8 µM) | relative viability ([3]; first compound 0.01 µM) | relative viability ([3]; first compound 0.03162 µM) | relative viability ([3]; first compound 0.1 µM) | relative viability ([3]; first compound 0.3162 µM) | relative viability ([3]; first compound 1 µM) | relative viability ([4]; first compound 0.01 µM) | relative viability ([4]; first compound 0.03162 µM) | relative viability ([4]; first compound 0.1 µM) | relative viability ([4]; first compound 0.3162 µM) | relative viability ([4]; first compound 1 µM)
NCI-H2126 | 0.678 | 0.709 | 0.775 | 0.678 | 0.635 | 0.655 | 0.573 | 0.533 | 0.867 | 0.841 | 0.781 | 0.749 | 0.75 | 1.58 | 0.914 | 1.26 | 1.19 | 1.01
LXF-289 | 1.08 | 0.913 | 0.969 | 0.957 | 0.961 | 0.411 | 0.419 | 0.429 | 0.216 | 0.199 | 0.187 | 0.181 | 0.199 | 0.985 | 0.956 | 0.945 | 0.996 | 0.958
NCI-H358 | 0.827 | 0.642 | 0.656 | 0.892 | 0.517 |  | 0.19 | 0.129 | 0.0852 | 0.0922 | 0.103 | 0.102 | 0.101 | 0.541 | 0.57 | 0.623 | 0.786 | 0.493
NCI-H1734 | 1.05 | 0.578 | 0.823 | 0.891 | 0.836 | 0.524 | 0.477 | 0.477 | 0.233 | 0.256 | 0.247 | 0.304 | 0.274 | 0.759 | 0.746 | 0.893 | 0.924 | 0.804
NCI-H2087 | 0.977 | 0.982 | 1.06 | 1.05 | 0.928 | 0.305 | 0.327 | 0.301 | 0.254 | 0.19 | 0.214 | 0.228 | 0.217 | 0.985 | 1.01 | 1.13 | 1.24 | 0.982
NCI-H460 | 1.14 |  | 0.901 | 1.3 | 0.889 | 0.681 | 0.462 | 0.349 | 0.217 | 0.542 | 0.392 | 0.116 | 0.0669 | 1 | 0.894 | 1.08 | 1.08 | 1.08
NCI-H1793 | 1.1 | 0.624 | 0.931 | 1.05 | 1.01 | 0.262 | 0.384 | 0.4 | 0.313 | 0.344 | 0.338 | 0.283 | 0.291 | 0.654 | 0.265 | 0.627 | 0.748 | 0.735
A-427 | 1.14 | 1.1 | 1.07 | 1.06 | 1.21 | 0.526 | 0.509 | 0.551 | 0.173 | 0.181 | 0.166 | 0.173 | 0.235 | 0.923 | 0.937 | 1.07 | 1.06 | 1.13
